Results taken from patent US11691980B2, “Liphagal analog and multi-targeted kinase inhibitor containing liphagal or analog thereof” (TOHOKU UNIVERSITY, priority 2017, dated 2023).

How the values were obtained:
Format in all cases: biochemical
[1] = target: T1, ROCK2 (Homo sapiens, UniProt O75116); experiment: mobility shift assay
T1 construct: purchased Carna Biosciences

[2] = target: T2, CK2α2/β (Homo sapiens, UniProt P19784); experiment: mobility shift assay
T2 construct: purchased Carna Biosciences

[3] = target: T3, Erk5 (Homo sapiens, UniProt Q13164); experiment: mobility shift assay
T3 construct: purchased Carna Biosciences

[4] = target: T4, CHK1 (Homo sapiens, UniProt O14757); experiment: mobility shift assay
T4 construct: purchased Carna Biosciences

[5] = target: T5, RAK4 (Homo sapiens, UniProt Q9NWZ3); experiment: mobility shift assay
T5 construct: purchased Carna Biosciences

[6] = target: T6, LATS2 (Homo sapiens, UniProt Q9NRM7); experiment: mobility shift assay
T6 construct: purchased Carna Biosciences

[7] = target: T7, COT_Cascade (Homo sapiens, UniProt P41279); experiment: mobility shift assay
T7 construct: purchased Carna Biosciences

[8] = target: T8, DAPK1 (Homo sapiens, UniProt P53355); experiment: mobility shift assay
T8 construct: purchased Carna Biosciences

[9] = target: T9, BRAF_Cascade (Homo sapiens, UniProt P15056); experiment: mobility shift assay
T9 construct: purchased Carna Biosciences

[10] = target: T10, CaMK1α (Homo sapiens, UniProt Q14012); experiment: mobility shift assay
T10 construct: purchased Carna Biosciences

[11] = target: T11, MARK1 (Homo sapiens, UniProt Q9P0L2); experiment: mobility shift assay
T11 construct: purchased Carna Biosciences

[12] = target: T12, MSK2 (Homo sapiens, UniProt O75676); experiment: mobility shift assay
T12 construct: purchased Carna Biosciences

[13] = target: T13, TSSK2 (Homo sapiens, UniProt Q96PF2); experiment: mobility shift assay
T13 construct: purchased Carna Biosciences

[14] = target: T14, MSK1 (Homo sapiens, UniProt O75582); experiment: mobility shift assay
T14 construct: purchased Carna Biosciences

[15] = target: T15, CDK2/CycA2 (Homo sapiens, UniProt P24941); experiment: mobility shift assay
T15 construct: purchased Carna Biosciences

[16] = target: T16, CDK3/CycE1 (Homo sapiens, UniProt Q00526); experiment: mobility shift assay
T16 construct: purchased Carna Biosciences

[17] = target: T17, PKCl (Homo sapiens, UniProt P41743); experiment: mobility shift assay
T17 construct: purchased Carna Biosciences

[18] = target: T18, EEF2K (Homo sapiens, UniProt O00418); experiment: mobility shift assay
T18 construct: purchased Carna Biosciences

[19] = target: T19, CDC2/CycB1 (Homo sapiens, UniProt P06493); experiment: mobility shift assay
T19 construct: purchased Carna Biosciences

[20] = target: T20, CLK1 (Homo sapiens, UniProt P49759); experiment: mobility shift assay
T20 construct: purchased Carna Biosciences

[21] = target: T21, AMFKα2/β1/γ1 (Homo sapiens, UniProt P54646); experiment: mobility shift assay
T21 construct: purchased Carna Biosciences

[22] = target: T22, EPHA8 (Homo sapiens, UniProt P29322); experiment: mobility shift assay
T22 construct: purchased Carna Biosciences

[23] = target: T23, EGFR(α746-750) (Homo sapiens, UniProt P00533, DEL746-750); experiment: mobility shift assay
T23 construct: purchased Carna Biosciences

[24] = target: T24, SkMLCK (Homo sapiens, UniProt Q9H1R3); experiment: mobility shift assay
T24 construct: purchased Carna Biosciences

[25] = target: T25, CaMK2β (Homo sapiens, UniProt Q13554); experiment: mobility shift assay
T25 construct: purchased Carna Biosciences

[26] = target: T26, MARK3 (Homo sapiens, UniProt P27448); experiment: mobility shift assay
T26 construct: purchased Carna Biosciences

[27] = target: T27, BRSK1 (Homo sapiens, UniProt Q8TDC3); experiment: mobility shift assay
T27 construct: purchased Carna Biosciences

[28] = target: PIM2 (Homo sapiens, UniProt Q9P1W9); experiment: mobility shift assay
[29] = target: CDK4/CycD3 (Homo sapiens, UniProt P11802); experiment: IC50 by mobility shift assay; details: Table 3, CDK4, mobility shift assay; read-out: IC50 (μM), Kinase CDK4/CycD3
Excerpt: Next, the compounds produced in Production Examples described above were each assessed for its inhibitory activity against CDK4 by mobility shift assay. In addition, a combination showing the highest inhibitory activity is indicated by italics.

[30] = target: T28, p38α (Homo sapiens, UniProt Q16539); experiment: mobility shift assay
T28 construct: purchased Carna Biosciences

[31] = target: T29, p70S6K (Homo sapiens, UniProt P23443); experiment: mobility shift assay
T29 construct: purchased Carna Biosciences

[32] = target: T30, EGFR(L861Q) (Homo sapiens, UniProt P00533, L861Q); experiment: mobility shift assay
T30 construct: purchased Carna Biosciences

[33] = target: T31, PLK1 (Homo sapiens, UniProt P53350); experiment: mobility shift assay
T31 construct: purchased Carna Biosciences

[34] = target: T32, PBK (Homo sapiens, UniProt Q96KB5); experiment: mobility shift assay
T32 construct: purchased Carna Biosciences

[35] = target: T33, ALK(L1196M) (Homo sapiens, UniProt Q9UM73, L1196M); experiment: mobility shift assay
T33 construct: purchased Carna Biosciences

[36] = target: T34, CaMK2δ (Homo sapiens, UniProt Q13557); experiment: mobility shift assay
T34 construct: purchased Carna Biosciences

[37] = target: T35, PASK (Homo sapiens, UniProt Q96RG2); experiment: mobility shift assay
T35 construct: purchased Carna Biosciences

[38] = target: T36, RSK3 (Homo sapiens, UniProt Q15349); experiment: mobility shift assay
T36 construct: purchased Carna Biosciences

[39] = target: T37, Nuak2 (Homo sapiens, UniProt Q9H093); experiment: mobility shift assay
T37 construct: purchased Carna Biosciences

[40] = target: T38, KIT(V654A) (Homo sapiens, UniProt P10721, V654A); experiment: mobility shift assay
T38 construct: purchased Carna Biosciences
T38 sequence (P10721 26-976 V654A): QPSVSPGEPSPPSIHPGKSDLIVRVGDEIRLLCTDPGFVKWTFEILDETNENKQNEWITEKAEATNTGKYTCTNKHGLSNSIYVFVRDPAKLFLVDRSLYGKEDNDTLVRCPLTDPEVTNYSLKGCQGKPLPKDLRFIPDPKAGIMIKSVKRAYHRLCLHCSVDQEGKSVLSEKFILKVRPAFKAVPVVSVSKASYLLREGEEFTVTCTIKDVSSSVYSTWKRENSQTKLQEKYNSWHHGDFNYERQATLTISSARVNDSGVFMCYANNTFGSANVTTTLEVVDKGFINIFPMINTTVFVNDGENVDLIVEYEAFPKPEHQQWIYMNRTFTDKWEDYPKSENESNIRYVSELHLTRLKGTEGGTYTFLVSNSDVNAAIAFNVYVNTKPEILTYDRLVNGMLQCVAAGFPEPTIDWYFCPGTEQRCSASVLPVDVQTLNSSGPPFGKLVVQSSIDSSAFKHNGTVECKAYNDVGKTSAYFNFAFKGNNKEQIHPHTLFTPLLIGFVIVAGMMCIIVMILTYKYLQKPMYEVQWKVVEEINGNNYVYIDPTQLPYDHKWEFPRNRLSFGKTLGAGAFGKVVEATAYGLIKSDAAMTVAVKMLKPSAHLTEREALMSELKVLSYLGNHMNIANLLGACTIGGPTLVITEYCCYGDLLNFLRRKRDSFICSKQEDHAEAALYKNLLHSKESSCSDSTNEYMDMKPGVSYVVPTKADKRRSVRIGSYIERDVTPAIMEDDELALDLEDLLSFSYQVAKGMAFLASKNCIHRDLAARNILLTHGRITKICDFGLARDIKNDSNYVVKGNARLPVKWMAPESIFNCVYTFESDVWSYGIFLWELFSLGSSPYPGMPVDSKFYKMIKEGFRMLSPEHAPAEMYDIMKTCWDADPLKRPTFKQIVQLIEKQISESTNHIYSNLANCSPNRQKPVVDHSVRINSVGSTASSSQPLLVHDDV

Sequence of PIM2 (Q9P1W9 whole entry): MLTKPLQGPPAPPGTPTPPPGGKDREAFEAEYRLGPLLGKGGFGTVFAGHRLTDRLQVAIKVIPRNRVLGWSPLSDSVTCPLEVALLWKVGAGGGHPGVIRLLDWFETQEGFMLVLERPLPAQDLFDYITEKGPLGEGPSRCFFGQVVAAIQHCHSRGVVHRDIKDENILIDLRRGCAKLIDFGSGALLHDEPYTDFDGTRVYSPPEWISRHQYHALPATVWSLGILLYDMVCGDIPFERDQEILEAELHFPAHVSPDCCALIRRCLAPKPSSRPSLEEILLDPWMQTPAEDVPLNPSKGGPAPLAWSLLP
T5 sequence (Q9NWZ3 whole entry): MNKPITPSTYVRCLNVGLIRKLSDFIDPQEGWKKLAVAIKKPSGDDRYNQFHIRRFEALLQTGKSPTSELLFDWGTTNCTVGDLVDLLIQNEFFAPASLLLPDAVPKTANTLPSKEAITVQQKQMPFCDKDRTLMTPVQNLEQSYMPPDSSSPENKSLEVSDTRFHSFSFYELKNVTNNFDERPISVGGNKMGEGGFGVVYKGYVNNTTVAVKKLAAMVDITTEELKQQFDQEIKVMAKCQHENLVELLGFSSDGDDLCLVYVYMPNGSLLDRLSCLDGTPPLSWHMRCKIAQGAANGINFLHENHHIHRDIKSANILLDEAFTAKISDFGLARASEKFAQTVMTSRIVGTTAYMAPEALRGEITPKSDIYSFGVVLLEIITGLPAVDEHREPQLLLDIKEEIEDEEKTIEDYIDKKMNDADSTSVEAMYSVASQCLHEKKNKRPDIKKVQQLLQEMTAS
T34 sequence (Q13557 whole entry): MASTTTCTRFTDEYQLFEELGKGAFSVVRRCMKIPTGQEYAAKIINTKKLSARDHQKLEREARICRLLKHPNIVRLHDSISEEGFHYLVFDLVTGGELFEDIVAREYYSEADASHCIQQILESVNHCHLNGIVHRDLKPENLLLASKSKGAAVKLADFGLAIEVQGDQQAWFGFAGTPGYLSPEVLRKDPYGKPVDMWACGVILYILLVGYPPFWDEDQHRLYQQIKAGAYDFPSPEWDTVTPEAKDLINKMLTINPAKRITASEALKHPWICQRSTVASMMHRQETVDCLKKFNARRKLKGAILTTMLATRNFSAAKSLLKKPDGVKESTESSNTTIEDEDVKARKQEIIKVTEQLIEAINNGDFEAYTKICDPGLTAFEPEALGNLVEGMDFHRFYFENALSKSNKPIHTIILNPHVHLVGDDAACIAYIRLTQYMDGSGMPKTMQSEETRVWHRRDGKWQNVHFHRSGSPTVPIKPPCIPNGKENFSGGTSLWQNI
T19 sequence (P06493 whole entry): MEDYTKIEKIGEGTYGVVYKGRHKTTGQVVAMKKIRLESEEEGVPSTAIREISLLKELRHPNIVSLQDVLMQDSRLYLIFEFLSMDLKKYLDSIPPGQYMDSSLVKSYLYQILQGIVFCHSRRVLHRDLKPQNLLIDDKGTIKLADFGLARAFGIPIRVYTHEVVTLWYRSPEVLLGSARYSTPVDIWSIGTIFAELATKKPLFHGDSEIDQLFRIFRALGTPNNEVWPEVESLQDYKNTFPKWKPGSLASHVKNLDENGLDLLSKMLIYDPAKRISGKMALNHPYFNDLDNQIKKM
T19 sequence (P14635 whole entry partner): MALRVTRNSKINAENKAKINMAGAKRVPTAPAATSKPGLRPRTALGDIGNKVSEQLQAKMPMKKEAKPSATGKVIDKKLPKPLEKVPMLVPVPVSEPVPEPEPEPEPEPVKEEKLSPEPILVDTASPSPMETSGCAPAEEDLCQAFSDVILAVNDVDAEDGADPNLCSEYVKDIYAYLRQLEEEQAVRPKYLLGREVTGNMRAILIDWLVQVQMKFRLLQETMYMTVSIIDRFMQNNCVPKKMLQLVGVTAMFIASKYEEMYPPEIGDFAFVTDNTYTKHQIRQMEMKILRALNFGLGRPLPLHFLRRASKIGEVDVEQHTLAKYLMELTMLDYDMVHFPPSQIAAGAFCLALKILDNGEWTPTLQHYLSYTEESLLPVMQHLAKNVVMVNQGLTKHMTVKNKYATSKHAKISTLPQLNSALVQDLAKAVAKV
T3 sequence (Q13164 whole entry): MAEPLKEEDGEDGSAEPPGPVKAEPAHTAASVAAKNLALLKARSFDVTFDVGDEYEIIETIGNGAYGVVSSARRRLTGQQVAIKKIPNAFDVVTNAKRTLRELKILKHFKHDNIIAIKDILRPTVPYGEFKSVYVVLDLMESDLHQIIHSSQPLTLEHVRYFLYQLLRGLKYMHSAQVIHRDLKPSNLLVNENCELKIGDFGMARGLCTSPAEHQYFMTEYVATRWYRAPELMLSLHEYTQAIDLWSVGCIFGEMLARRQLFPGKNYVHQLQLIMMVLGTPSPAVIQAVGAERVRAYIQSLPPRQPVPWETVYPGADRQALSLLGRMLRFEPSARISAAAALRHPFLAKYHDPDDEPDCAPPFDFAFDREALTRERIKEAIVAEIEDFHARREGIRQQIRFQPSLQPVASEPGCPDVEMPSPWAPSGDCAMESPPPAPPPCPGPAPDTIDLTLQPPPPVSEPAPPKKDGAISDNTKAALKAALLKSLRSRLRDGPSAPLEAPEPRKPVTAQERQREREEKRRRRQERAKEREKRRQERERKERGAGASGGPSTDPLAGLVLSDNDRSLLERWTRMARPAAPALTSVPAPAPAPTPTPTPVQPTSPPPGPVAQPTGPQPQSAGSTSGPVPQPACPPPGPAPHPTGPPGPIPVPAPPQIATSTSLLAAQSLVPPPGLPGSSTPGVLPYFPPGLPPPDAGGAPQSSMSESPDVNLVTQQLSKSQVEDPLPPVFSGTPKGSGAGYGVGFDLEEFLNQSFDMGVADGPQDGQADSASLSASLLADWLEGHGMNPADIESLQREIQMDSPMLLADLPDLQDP
T9 sequence (P15056 whole entry): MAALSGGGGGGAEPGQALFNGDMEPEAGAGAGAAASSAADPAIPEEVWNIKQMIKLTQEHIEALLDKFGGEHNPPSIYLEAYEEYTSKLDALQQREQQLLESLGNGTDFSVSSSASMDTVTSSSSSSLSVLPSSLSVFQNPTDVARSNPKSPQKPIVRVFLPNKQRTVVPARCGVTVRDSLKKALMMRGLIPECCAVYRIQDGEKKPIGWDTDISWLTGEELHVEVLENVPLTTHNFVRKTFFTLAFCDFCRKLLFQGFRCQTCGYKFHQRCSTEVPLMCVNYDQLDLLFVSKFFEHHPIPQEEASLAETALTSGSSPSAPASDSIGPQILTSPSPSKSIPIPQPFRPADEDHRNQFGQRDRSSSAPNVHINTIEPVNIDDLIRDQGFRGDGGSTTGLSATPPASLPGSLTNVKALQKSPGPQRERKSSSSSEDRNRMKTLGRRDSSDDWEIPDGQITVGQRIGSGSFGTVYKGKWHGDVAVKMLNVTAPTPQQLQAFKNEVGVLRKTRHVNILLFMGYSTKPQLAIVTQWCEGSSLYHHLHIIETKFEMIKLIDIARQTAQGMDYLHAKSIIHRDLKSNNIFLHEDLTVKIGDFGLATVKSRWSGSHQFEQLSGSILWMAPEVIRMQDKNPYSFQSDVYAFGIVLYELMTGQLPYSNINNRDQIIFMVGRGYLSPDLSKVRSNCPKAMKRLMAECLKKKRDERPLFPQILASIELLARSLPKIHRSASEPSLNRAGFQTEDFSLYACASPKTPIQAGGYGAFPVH
T20 sequence (P49759 whole entry): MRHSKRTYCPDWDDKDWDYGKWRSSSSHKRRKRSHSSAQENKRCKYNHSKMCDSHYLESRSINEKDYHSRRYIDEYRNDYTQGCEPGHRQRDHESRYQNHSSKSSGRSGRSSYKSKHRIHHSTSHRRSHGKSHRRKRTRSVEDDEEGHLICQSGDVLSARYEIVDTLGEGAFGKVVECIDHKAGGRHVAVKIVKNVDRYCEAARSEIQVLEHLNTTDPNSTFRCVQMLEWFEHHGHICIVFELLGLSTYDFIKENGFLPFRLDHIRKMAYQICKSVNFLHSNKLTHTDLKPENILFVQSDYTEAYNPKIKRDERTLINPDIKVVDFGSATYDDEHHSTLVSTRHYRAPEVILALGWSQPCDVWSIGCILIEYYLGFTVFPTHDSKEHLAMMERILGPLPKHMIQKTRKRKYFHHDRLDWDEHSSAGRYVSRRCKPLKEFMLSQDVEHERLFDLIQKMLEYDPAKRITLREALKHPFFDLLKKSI

Q: `C[C@@H]1CC[C@H]2C(C)(C)CCC[C@]2(C)c2c1oc1c(C=O)c(O)c(O)cc21` [LG-1, liphagal] was tested. Which inhibition at 10 µM [1] did it give?
A: The inhibition at 10 µM was 2%.

Q: And the inhibition at 10 µM [2]?
A: Its inhibition at 10 µM is 9%.

Q: And the inhibition at 10 µM [3]?
A: The inhibition at 10 µM was 0.6%.

Q: And the inhibition at 10 µM [4]?
A: The inhibition at 10 µM was -15.3%.

Q: What about the inhibition at 10 µM [5] of the same molecule?
A: The inhibition at 10 µM was -2.8%.

Q: What about the inhibition at 10 µM [6] of the same molecule?
A: The inhibition at 10 µM was -0.6%.

Q: What about the inhibition at 10 µM [7] of the same molecule?
A: The inhibition at 10 µM was 14.7%.

Q: And the inhibition at 10 µM [8]?
A: The inhibition at 10 µM was 1.8%.

Q: And the inhibition at 10 µM [9]?
A: Its inhibition at 10 µM is 15%.

Q: And the inhibition at 10 µM [10]?
A: The inhibition at 10 µM was 25.7%.

Q: What about the inhibition at 10 µM [11] of the same molecule?
A: The inhibition at 10 µM was -3.5%.

Q: And the inhibition at 10 µM [12]?
A: Its inhibition at 10 µM is -11.7%.

Q: And the inhibition at 10 µM [13]?
A: The inhibition at 10 µM was 21%.

Q: What about the inhibition at 10 µM [14] of the same molecule?
A: Its inhibition at 10 µM is 5%.

Q: And the inhibition at 10 µM [15]?
A: Its inhibition at 10 µM is 10.3%.

Q: What about the inhibition at 10 µM [16] of the same molecule?
A: Its inhibition at 10 µM is 40.1%.

Q: And the inhibition at 10 µM [17]?
A: Its inhibition at 10 µM is 12.3%.

Q: And the inhibition at 10 µM [18]?
A: The inhibition at 10 µM was 22.4%.

Q: And the inhibition at 10 µM [19]?
A: Its inhibition at 10 µM is 33.7%.

Q: And the inhibition at 10 µM [20]?
A: Its inhibition at 10 µM is 30.1%.

Q: And the inhibition at 10 µM [21]?
A: Its inhibition at 10 µM is 44.1%.

Q: What about the inhibition at 10 µM [22] of the same molecule?
A: The inhibition at 10 µM was 0.8%.

Q: And the inhibition at 10 µM [23]?
A: The inhibition at 10 µM was -5.1%.

Q: And the inhibition at 10 µM [24]?
A: Its inhibition at 10 µM is -1.3%.

Q: What about the inhibition at 10 µM [25] of the same molecule?
A: The inhibition at 10 µM was 1.9%.

Q: And the inhibition at 10 µM [26]?
A: The inhibition at 10 µM was -2.9%.

Q: And the inhibition at 10 µM [27]?
A: The inhibition at 10 µM was 9.2%.

Q: What about the inhibition at 10 µM ([28]; PIM2) of the same molecule?
A: Its inhibition at 10 µM is 63.5%.

Q: And the “inhibitory activity against PIM2” value ([28]; in words, 10 μM)?
A: Its value is “potent inhibitory activity”.

Q: And the IC50 [29]?
A: The IC50 was 19.9 µM.

Q: What about the inhibition at 10 µM [30] of the same molecule?
A: The inhibition at 10 µM was 0.1%.

Q: And the inhibition at 10 µM [31]?
A: The inhibition at 10 µM was 15.9%.

Q: What about the inhibition at 10 µM [32] of the same molecule?
A: The inhibition at 10 µM was 1.5%.

Q: What about the inhibition at 10 µM [33] of the same molecule?
A: The inhibition at 10 µM was 31.3%.

Q: What about the inhibition at 10 µM [34] of the same molecule?
A: The inhibition at 10 µM was 13%.

Q: What about the inhibition at 10 µM [35] of the same molecule?
A: The inhibition at 10 µM was -1.5%.

Q: And the inhibition at 10 µM [36]?
A: Its inhibition at 10 µM is 7.7%.

Q: What about the inhibition at 10 µM [37] of the same molecule?
A: Its inhibition at 10 µM is 17.4%.

Q: What about the inhibition at 10 µM [38] of the same molecule?
A: The inhibition at 10 µM was 8.1%.

Q: What about the inhibition at 10 µM [39] of the same molecule?
A: The inhibition at 10 µM was 1.5%.

Q: And the inhibition at 10 µM [40]?
A: The inhibition at 10 µM was 22.3%.
